Measurements taken from patent US9169252B2 (BRISTOL-MYERS SQUIBB COMPANY, priority 2014, dated 2015).
Like-named read-outs stand apart in the source and are kept apart here.

Legend:
IRAK4 = IRAK4 (Homo sapiens (Human), UniProt Q9NWZ3); assay: IRAK4 Inhibition Assay; assay type: biochemical; details: ATP 500 μM, read-out: IRAK4 IC50
Experimental: The assays were performed in U-bottom 384-well plates. […] The reaction was initiated by the combination of IRAK4 with substrates and test compounds. The reaction mixture was incubated at room temperature for 60 min. and terminated by adding 45 μL of 35 mM EDTA to each sample. The reaction mixture was analyzed on the Caliper LABCHIP® 3000 (Caliper, Hopkinton, Mass.) by electrophoretic separation of the fluorescent substrate and phosphorylated product.

[1] = system: TLR2 induced IL-6 in peripheral blood mononuclear cells (PBMCs); assay: PBMC TLR2 Induced IL-6 Assay; assay type: cell-based, human; details: IL-6 by ELISA; for IC50: read-out: Cell IC50; for EC50: read-out: Cell EC50
Method in brief: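 Lipoteichoic acid at 10 µg/ml served as TLR2 stimulus for 5 hours, following a 30-minute compound pretreatment at 37° C. Cells were Ficoll-isolated human PBMCs, 250000 cells/well, cultured in RPMI plus 10% heat-inactivated FCS.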

[2] = Homo sapiens, PBMC, human PBMCs, lipoteichoic acid stimulated
[3] = Homo sapiens, PBMC, PBMC TLR2 Induced IL-6 Assay, lipoteichoic acid stimulation
[4] = PBMC TLR2 Induced IL-6 Assay, lipoteichoic acid stimulation
[5] = human PBMCs, lipoteichoic acid stimulated

Chain of IRAK4 (Q9NWZ3 whole entry, species assumed): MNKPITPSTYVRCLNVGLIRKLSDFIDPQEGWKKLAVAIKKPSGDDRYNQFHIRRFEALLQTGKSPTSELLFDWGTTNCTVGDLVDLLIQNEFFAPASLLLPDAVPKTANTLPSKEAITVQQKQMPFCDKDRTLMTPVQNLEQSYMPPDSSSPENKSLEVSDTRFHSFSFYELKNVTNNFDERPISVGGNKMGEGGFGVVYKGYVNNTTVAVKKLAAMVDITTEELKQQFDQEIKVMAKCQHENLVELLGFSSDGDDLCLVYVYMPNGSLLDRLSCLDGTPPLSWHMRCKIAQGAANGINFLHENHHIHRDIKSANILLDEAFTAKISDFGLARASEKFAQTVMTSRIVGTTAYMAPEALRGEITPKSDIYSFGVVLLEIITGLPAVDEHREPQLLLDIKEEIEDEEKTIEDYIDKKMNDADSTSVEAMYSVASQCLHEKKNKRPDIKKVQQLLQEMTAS

SMILES	IC50 (IRAK4; IRAK4 0.6 nM) [nM]	IC50 (IRAK4; IRAK4 Inhibition Assay) [nM]	IC50 [1, 3] [nM]	further results
CC(C)CC(C)Nc1cc(-n2ccc3cc(C#N)cnc32)ncc1C(=O)NC[C@@H](F)C(C)(C)O (single isomer, unassigned) [Example 454]	5.9	–	–	EC50 [1, 2]: 757 nM; IC50 [1, 2]: 289 nM
CC(C)Nc1cc(-n2ncc3cc(C#N)c(N)nc32)ncc1C(=O)NC1(C)CC1 [Example 322]	–	6.7	159	–
CC(C)(CNc1cc(-n2ncc3cc(C#N)cnc32)ncc1C(=O)NC[C@@H](F)C(C)(C)O)OC(F)F [Example 601]	14.2	–	–	IC50 [1, 2]: 490 nM
CC(C)(O)[C@H](F)CNC(=O)c1cnc(-n2ccc3cc(C#N)cnc32)cc1Nc1cccc(S(N)(=O)=O)c1 [Example 416]	1.9	–	–	EC50 [1, 2]: 58 nM
CC(C)(O)[C@H](F)CNC(=O)c1cnc(-n2ncc3cc(C#N)cnc32)cc1NC1CCC(F)(F)C1 (single isomer, unassigned) [Example 614]	7.7	–	–	EC50 [1, 2]: 481 nM; IC50 [1, 5]: 491 nM
CC(C)Nc1cc(-n2ccc3cc(C#N)cnc32)ncc1C(=O)N[C@H]1CC[C@@](F)(c2nccn2C)CC1 [Example 420]	4.4	–	–	EC50 [1, 2]: 186 nM
CC(C)(O)[C@H](F)CNC(=O)c1cnc(-n2ncc3cc(Cl)cnc32)cc1Nc1cnn(CC(F)F)c1 [Example 351]	–	2.3	27	–
CC(C)(O)[C@H](F)CNC(=O)c1cnc(-n2ncc3cc(F)cnc32)cc1NC1CCCOC1 (some centres unmarked) [Example 547]	16.6	–	–	EC50 [1, 2]: 65 nM; IC50 [1, 2]: 591 nM
COc1cnc2c(cnn2-c2cc(NC(C)C)c(C(=O)NC[C@@H](F)C(C)(C)O)cn2)c1 [Example 195]	–	19.4	647	EC50 [1, 3]: 340 nM
CC(C)Nc1cc(-n2ccc3cc(C#N)cnc32)ncc1C(=O)NCCCOC(C)(C)C [Example 15, N-(3-(tert-butoxy)propyl)-6-(5-cyano-1H-pyrrolo[2,3-b]pyridin-1-yl)-4-(isopropylamino)nicotinamide]	–	5.5	–	EC50 [1, 3]: 171 nM
CC(C)(O)[C@H](F)CNC(=O)c1cnc(-n2ncc3cc(C#N)cnc32)cc1N[C@@H]1CCN(c2ncccn2)C1 [Example 537]	6.8	–	–	EC50 [1, 2]: 159 nM
CC(C)Nc1cc(-n2ccc3cc(C#N)cnc32)ncc1C(=O)N[C@H]1CC[C@](F)(c2ccnn2C)CC1 [Example 174, 6-(5-Cyano-1H-pyrrolo[2,3-b]pyridin-1-yl)-N-((1s,4s)-4-fluoro-4-(1-methyl-1H-pyrazol-5-yl)cyclohexyl)-4-(isopropylamino)nicotinamide]	–	3.3	–	EC50 [1, 3]: 182 nM
CC(C)(O)[C@H](F)CNC(=O)c1cnc(-n2ncc3cc(C#N)cnc32)cc1Nc1cnn(CC(F)F)c1 [Example 347, (R)-6-(5-Cyano-1H-pyrazolo[3,4-b]pyridin-1-yl)-4-((1-(2,2-difluoroethyl)-1H-pyrazol-4-yl)amino)-N-(2-fluoro-3-hydroxy-3-methylbutyl)nicotinamide]	–	1.3	146	–
CC(C)Nc1cc(-n2ncc3cc(C#N)cnc32)ncc1C(=O)Nc1cnn(CC(C)(C)O)c1 [Example 304]	–	10.7	408	–
CCCn1cc(Nc2cc(-n3ncc4cc(Cl)cnc43)ncc2C(=O)NC[C@@H](F)C(C)(C)O)cn1 [Example 381]	–	2.5	41	–
CC(C)(O)[C@H](F)CNC(=O)c1cnc(-n2ncc3cc(C#N)cnc32)cc1NC1CC1 [Example 336]	–	3.8	556	EC50 [1, 4]: 168 nM
CC(=O)N1CCC(Nc2cc(-n3ccc4cc(C#N)cnc43)ncc2C(=O)NC[C@@H](F)C(C)(C)O)CC1 [Example 470]	8	–	–	EC50 [1, 2]: 240 nM
CC(C)Nc1cc(-n2ncc3cc(C#N)cnc32)ncc1C(=O)NC[C@@H](F)C(C)(C)O [Example 133, (R)-6-(5-Cyano-1H-pyrazolo[3,4-b]pyridin-1-yl)-N-(2-fluoro-3-hydroxy-3-methylbutyl)-4-(isopropylamino)nicotinamide]	–	2.6	–	EC50 [1, 3]: 120 nM
CC1(Nc2cc(-n3cnc4cc(C#N)cnc43)ncc2C(=O)NC[C@@H](F)C(C)(C)O)CC1 [Example 343]	–	3.5	428	–
CC(C)NC(=O)[C@H](F)CNC(=O)c1cnc(-n2ncc3cc(C#N)cnc32)cc1NC(C)C [Example 197]	–	8.1	–	EC50 [1, 3]: 297 nM
CCNc1cc(-n2ncc3cc(C#N)c(N)nc32)ncc1C(=O)NC[C@@H](F)C(C)(C)O [Example 577]	3.2	–	–	IC50 [1, 2]: 175 nM

Further lines, with some results ahead:

IC50 (IRAK4; IRAK4 0.6 nM) [nM]	IC50 (IRAK4; IRAK4 Inhibition Assay) [nM]	SMILES	IC50 [1, 3] [nM]	further results
3.7	–	CC(C)Nc1cc(-n2ccc3cc(C#N)cnc32)ncc1C(=O)N[C@H]1CC[C@H](C(C)(C)O)C1 [Example 497]	–	IC50 [1, 2]: 98 nM
–	1.9	CC(C)(O)[C@H](F)CNC(=O)c1cnc(-n2ccc3cc(C#N)cnc32)cc1NC1CCOCC1F (single isomer, unassigned) [Example 106]	896	EC50 [1, 4]: 896 nM
–	5.6	CC(C)CCNC(=O)c1cnc(-n2ncc3cc(C#N)cnc32)cc1N[C@@H](C)CO [Example 320]	261	–
–	2.7	CC1(Nc2cc(-n3ncc4cc(C#N)cnc43)ncc2C(=O)NC[C@@H](F)C(C)(C)O)CC1 [Example 292]	456	–
–	3.7	CCOC(C)(C)[C@H](F)CNC(=O)c1cnc(-n2ncc3cc(C#N)cnc32)cc1NC(C)C [Example 215]	–	EC50 [1, 3]: 144 nM
–	3.8	CC(=O)N[C@H]1CC[C@H](NC(=O)c2cnc(-n3ncc4cc(C#N)c(N)nc43)cc2NC(C)C)CC1 [Example 317]	172	–
–	1	CC(C)(C)Nc1cc(-n2ncc3cc(C#N)c(N)nc32)ncc1C(=O)NC[C@@H](F)C(C)(C)O [Example 293]	32	–
6.2	–	CC(C)(O)[C@H]1CC[C@H](NC(=O)c2cnc(-n3ncc4cc(Cl)cnc43)cc2NC2COC2)CC1 [Example 556]	–	IC50 [1, 2]: 305 nM
8.2	–	CC(C)Nc1cc(-n2ccc3cc(CNC(=O)NCc4ccccc4)cnc32)ncc1C(=O)NC[C@@H](F)C(C)(C)O [Example 514]	–	IC50 [1, 2]: 47 nM
2.8	–	CCCOC(=O)NCc1cnc2c(ccn2-c2cc(NC(C)C)c(C(=O)NC[C@@H](F)C(C)(C)O)cn2)c1 [Example 508]	–	IC50 [1, 2]: 224 nM
–	4.9	COC(=O)N[C@H]1CC[C@H](NC(=O)c2cnc(-n3ccc4cc(C#N)cnc43)cc2NC(C)C)CC1 [Example 97, methyl((trans)-4-(6-(5-cyano-1H-pyrrolo[2,3-b]pyridin-1-yl)-4-(isopropylamino)nicotinamido)cyclohexyl)carbamate]	–	EC50 [1, 3]: 108 nM
–	3.5	COC1CCC(O)(CCNC(=O)c2cnc(-n3ncc4cc(C#N)cnc43)cc2NC(C)C)CC1 (centres unmarked) [Example 291]	349	–
–	1.9	CC(C)Nc1cc(-n2ncc3cc(C#N)c(N)nc32)ncc1C(=O)NC[C@@H](F)C(C)(C)F [Example 295]	240	–
6	–	Cn1nccc1Nc1cc(-n2ccc3cc(C#N)cnc32)ncc1C(=O)NC[C@@H](F)C(C)(C)O [Example 424]	–	EC50 [1, 5]: 338 nM
–	3.3	CC(C)Nc1cc(-n2ncc3cc(C#N)cnc32)ncc1C(=O)NC[C@@H](F)C(C)(C)O [Example 335]	–	EC50 [1, 4]: 77 nM
–	18.4	CC(C)Nc1cc(-n2ncc3cc(C#N)cnc32)ncc1C(=O)NC1CCN(S(=O)(=O)NC(C)C)CC1 [Example 309]	207	–
4	–	CC(C)(O)[C@H](F)CNC(=O)c1cnc(-n2ncc3cc(C#N)cnc32)cc1N[C@H]1CC[C@H](C(C)(C)O)CC1 [Example 606, 6-(5-Cyano-1H-pyrazolo[3,4-b]pyridin-1-yl)-N—((R)-2-fluoro-3-hydroxy-3-methylbutyl)-4-(((1r,4R)-4-(2-hydroxypropan-2-yl)cyclohexyl)amino)nicotinamide]	–	EC50 [1, 2]: 127 nM
–	2.4	C[C@@H](CF)Nc1cc(-n2ccc3cc(C#N)cnc32)ncc1C(=O)NC[C@@H](F)C(C)(C)O [Example 117, 6-(5-cyano-1H-pyrrolo[2,3-b]pyridin-1-yl)-N—((R)-2-fluoro-3-hydroxy-3-methylbutyl)-4-(((S)-1-fluoropropan-2-yl)amino)nicotinamide]	–	EC50 [1, 3]: 28 nM
–	6.6	CC(C)Nc1cc(-n2ncc3cc(C#N)c(N)nc32)ncc1C(=O)NC1CCCCC1 [Example 324]	278	–
4.1	–	C[C@H](F)CNc1cc(-n2ncc3cc(C#N)cnc32)ncc1C(=O)NC[C@@H](F)C(C)(C)O [Example 583]	–	IC50 [1, 2]: 188 nM
1.5	–	CC(C)(O)[C@H](F)CNC(=O)c1cnc(-n2ncc3cc(C#N)c(N)nc32)cc1NC12CC(C1)C2 [Example 637]	–	IC50 [1, 2]: 165 nM
1	–	CC(C)(O)[C@H](F)CNC(=O)c1cnc(-n2ccc3cc(C#N)cnc32)cc1NC1COC1 [Example 437]	–	EC50 [1, 2]: 42 nM
2.9	–	CC(=O)N1CC[C@@H](Nc2cc(-n3ccc4cc(C#N)cnc43)ncc2C(=O)NC[C@@H](F)C(C)(C)O)C1 [Example 469]	–	EC50 [1, 2]: 84 nM; IC50 [1, 2]: 207 nM
